According to patent publication US8637550B2, “Heteroaryl diamide compounds useful as MMP-13 inhibitors” (Boehringer Ingelheim International GmbH, priority 2008, dated 2014):

target: MMP-13 (Homo sapiens, UniProt P45452); test: EnzoLyte 520 Generic MMP Assay Kit, 5-FAM/QXL520 FRET peptide substrate; type: biochemical
Description: The EnzoLyte™ 520 Generic MMP Assay Kit (AnaSpec Inc.) can detect the activity of several MMPs including MMP-1, 2, 3, 7, 8, 9, 13, and 14. This kit uses a 5-FAM/QXL™520 fluorescence resonance energy transfer (FRET) peptide as an MMP substrate.

| SMILES | IC50 [nM] |
| --- | --- |
| CNC(=O)[C@@H](NC(=O)c1ccc(-c2cccc(CNC(=O)c3ccc(C)cc3)c2)o1)C(C)C [5-{3-[(4-Methyl-benzoylamino)-methyl]-phenyl}-furan-2-carboxylic acid ((S)-2-methyl-1-methylcarbamoyl-propyl)-amide] | 175 |
| CNC(=O)[C@@H](NC(=O)c1ccc(-c2cccc(CNC(=O)C3CCCCC3)c2)o1)C(C)C [5-{3-[(Cyclohexanecarbonyl-amino)-methyl]-phenyl}-furan-2-carboxylic acid ((S)-2-methyl-1-methylcarbamoyl-propyl)-amide] | 165 |
| CNC(=O)[C@@H](NC(=O)c1ccc(-c2cccc(CNC(=O)c3cccc(Br)n3)c2)o1)C1CC1 [6-Bromo-N-[3-(5-{[(1S)-1-cyclopropyl-2-(methylamino)-2-oxoethyl]carbamoyl}-2-furyl)benzyl]pyridine-2-carboxamide] | 27 |
| CNC(=O)[C@@H](NC(=O)c1ccc(-c2cccc(CNC(=O)c3cccc(Cl)n3)c2)o1)C(C)C [6-Chloro-N-[3-(5-{[(1S)-2-methyl-1-(methylcarbamoyl)propyl]carbamoyl}-2-furyl)benzyl]pyridine-2-carboxamide] | 2 |
| CNC(=O)[C@@H](NC(=O)c1ccc(-c2cccc(CNC(=O)c3cccc(F)n3)c2)o1)C(C)C [6-Fluoro-N-[3-(5-{[(1S)-2-methyl-1-(methylcarbamoyl)propyl]carbamoyl}-2-furyl)benzyl]pyridine-2-carboxamide] | 2 |
| CNC(=O)[C@@H](NC(=O)c1ccc(-c2ccc(NC(=O)c3cccc(C)n3)cc2)o1)C(C)C [6-Methyl-N-[4-(5-{[(2S)-3-methyl-1-(methylamino)-1-oxobutan-2-yl]carbamoyl}furan-2-yl)phenyl]pyridine-2-carboxamide] | 14 |
| CNC(=O)[C@@H](NC(=O)c1ccc(-c2ccc(NC(=O)c3cn4cc(C(N)=O)ccc4n3)cc2)o1)C1CCCCC1 [Imidazo[1,2-a]pyridine-2,6-dicarboxylic acid 6-amide 2-[(4-{5-[((S)-cyclohexyl-methylcarbamoyl-melhyl)-carbamoyl]-furan-2-yl}-phenyl)-amide]] | 24 |
| CNC(=O)[C@@H](NC(=O)c1ccc(-c2ccc(NC(=O)OC)cc2)o1)C1CCCCC1 [Methyl [4-(5-{[(1S)-1-cyclohexyl-2-(methylamino)-2-oxoethyl]carbamoyl}furan-2-yl)phenyl]carbamate] | 225 |
| CNC(=O)[C@@H](NC(=O)c1ccc(-c2cccc(CNC(=O)c3cc4ccccc4o3)c2)o1)C1CCCCC1 [N-[3-(5-{[(1S)-1-cyclohexyl-2-(methylamino)-2-oxoethyl]carbamoyl}furan-2-yl)benzyl]-1-benzofuran-2-carboxamide] | 11 |
| CNC(=O)[C@@H](NC(=O)c1ccc(-c2cccc(CNC(=O)c3ccnc(C(F)(F)F)n3)c2)o1)C1CCOCC1 [N-[3-(5-{[(1S)-2-(methylamino)-2-oxo-1-(tetrahydro-2H-pyran-4-yl)ethyl]carbamoyl}-2-furyl)benzyl]-2-(trifluoromethyl)pyrimidine-4-carboxamide] | 2 |
| CNC(=O)[C@@H](NC(=O)c1ccc(-c2cccc(CNC(=O)c3cccc(C(F)(F)F)n3)c2)o1)C1CCOCC1 [N-[3-(5-{[(1S)-2-(methylamino)-2-oxo-1-(tetrahydro-2H-pyran-4-yl)ethyl]carbamoyl}-2-furyl)benzyl]-6-(trifluoromethyl)pyridine-2-carboxamide] | 2 |
| CNC(=O)[C@@H](NC(=O)c1ccc(-c2cccc(CNC(=O)C3CCCN3)c2)o1)C(C)C (stereo partly drawn) [N-[3-(5-{[(1S)-2-methyl-1-(methylcarbamoy)propyl]carbamoyl}-2-furyl)benzyl]prolinamide] | 305 |
| CNC(=O)[C@@H](NC(=O)c1ccc(-c2cccc(CNC(=O)c3cc4ccccc4o3)c2)o1)C(C)C [N-[3-(5-{[(1S)-2-methyl-1-(methylcarbamoyl)propyl]carbamoyl}-2-furyl)benzyl]-1-benzofuran-2-carboxamide] | 8 |
| CNC(=O)[C@@H](NC(=O)c1ccc(-c2cccc(CNC(=O)c3nc4ccccc4[nH]3)c2)o1)C(C)C [N-[3-(5-{[(1S)-2-methyl-1-(methylcarbamoyl)propyl]carbamoyl}-2-furyl)benzyl]-1H-benzimidazole-2-carboxamide] | 33 |
| CNC(=O)[C@@H](NC(=O)c1ccc(-c2cccc(CNC(=O)C3CNCCO3)c2)o1)C(C)C (stereo partly drawn) [N-[3-(5-{[(1S)-2-methyl-1-(methylcarbamoyl)propyl]carbamoyl}-2-furyl)benzyl]morpholine-2-carboxamide] | 370 |
| CNC(=O)[C@@H](NC(=O)c1ccc(-c2cccc(CNC(=O)c3cccnc3)c2)o1)C(C)C [N-[3-(5-{[(1S)-2-methyl-1-(methylcarbamoyl)propyl]carbamoyl}-2-furyl)benzyl]nicotinamide] | 355 |
| CNC(=O)[C@@H](NC(=O)c1ccc(-c2cccc(CNC(=O)C3CCCCN3)c2)o1)C(C)C (stereo partly drawn) [N-[3-(5-{[(1S)-2-methyl-1-(methylcarbamoyl)propyl]carbamoyl}-2-furyl)benzyl]piperidine-2-carboxamide] | 270 |
| CNC(=O)[C@@H](NC(=O)c1ccc(-c2cccc(CNC(=O)C3CCCNC3)c2)o1)C(C)C (stereo partly drawn) [N-[3-(5-{[(1S)-2-methyl-1-(methylcarbamoyl)propyl]carbamoyl}-2-furyl)benzyl]piperidine-3-carboxamide] | 430 |
| CNC(=O)[C@@H](NC(=O)c1ccc(-c2cccc(CNC(=O)c3cnccn3)c2)o1)C(C)C [N-[3-(5-{[(1S)-2-methyl-1-(methylcarbamoyl)propyl]carbamoyl}-2-furyl)benzyl]pyrazine-2-carboxamide] | 32 |
| CNC(=O)[C@@H](NC(=O)c1ccc(-c2cccc(CNC(=O)c3cccnn3)c2)o1)C(C)C [N-[3-(5-{[(1S)-2-methyl-1-(methylcarbamoyl)propyl]carbamoyl}-2-furyl)benzyl]pyridazine-3-carboxamide] | 420 |

Next, values leading:

| IC50 [nM] | SMILES |
| --- | --- |
| 4 | CNC(=O)[C@@H](NC(=O)c1ccc(-c2cccc(CNC(=O)c3cccc(C)n3)c2)o1)C1CCCCC1 [N-[3-(5-{[(1S)-1-cyclohcxyl-2-(methylamino)-2-oxoethyl]carbamoyl}furan-2-yl)benzyl]-6-methylpyridine-2-carboxamide] |
| 72 | CNC(=O)[C@@H](NC(=O)c1ccc(-c2cccc(CNC(=O)c3cc(C)n(C)n3)c2)o1)C1CCCCC1 [N-[3-(5-{[(1S)-1-cyclohexyl-2-(methylamino)-2-oxoethyl]carbamoyl}furan-2-yl)benzyl]-1,5-dimethyl-1H-pyrazole-3-carboxamide] |
| 313 | CNC(=O)[C@@H](NC(=O)c1ccc(-c2cccc(CNC(=O)c3nccn3C)c2)o1)C1CCCCC1 [N-[3-(5-{[(1S)-1-cyclohexyl-2-(methylamino)-2-oxoethyl]carbamoyl}furan-2-yl)benzyl]-1-methyl-1H-imidazole-2-carboxamide] |
| 24 | CNC(=O)[C@@H](NC(=O)c1ccc(-c2cccc(CNC(=O)c3ccn(C)n3)c2)o1)C1CCCCC1 [N-[3-(5-{[(1S)-1-cyclohexyl-2-(methylamino)-2-oxoethyl]carbamoyl}furan-2-yl)benzyl]-1-methyl-1H-pyrazole-3-carboxamide] |
| 143 | CNC(=O)[C@@H](NC(=O)c1ccc(-c2cccc(CNC(=O)c3ccnn3C)c2)o1)C1CCCCC1 [N-[3-(5-{[(1S)-1-cyclohexyl-2-(methylamino)-2-oxoethyl]carbamoyl}furan-2-yl)benzyl]-1-methyl-1H-pyrazole-5-carboxamide] |
| 7 | CNC(=O)[C@@H](NC(=O)c1ccc(-c2cccc(CNC(=O)c3ccnc(C(F)(F)F)n3)c2)o1)C1CCCCC1 [N-[3-(5-{[(1S)-1-cyclohexyl-2-(methylamino)-2-oxoethyl]carbamoyl}furan-2-yl)benzyl]-2-(trifluoromethyl)pyrimidine-4-carboxamide] |
| 123 | CNC(=O)[C@@H](NC(=O)c1ccc(-c2cccc(CNC(=O)c3cc(C)n[nH]3)c2)o1)C1CCCCC1 [N-[3-(5-{[(1S)-1-cyclohexyl-2-(methylamino)-2-oxoethyl]carbamoyl}furan-2-yl)benzyl]-3-methyl-1H-pyrazole-5-carboxamide] |
| 180 | CNC(=O)[C@@H](NC(=O)c1ccc(-c2cccc(CNC(=O)c3occc3C)c2)o1)C1CCCCC1 [N-[3-(5-{[(1S)-1-cyclohexyl-2-(methylamino)-2-oxoethyl]carbamoyl}furan-2-yl)benzyl]-3-methylfuran-2-carboxamide] |
| 103 | CNC(=O)[C@@H](NC(=O)c1ccc(-c2cccc(CNC(=O)c3ncccc3C)c2)o1)C1CCCCC1 [N-[3-(5-{[(1S)-1-cyclohexyl-2-(methylamino)-2-oxoethyl]carbamoyl}furan-2-yl)benzyl]-3-methylpyridine-2-carboxamide] |
| 38 | CCc1ccnc(C(=O)NCc2cccc(-c3ccc(C(=O)N[C@H](C(=O)NC)C4CCCCC4)o3)c2)c1 [N-[3-(5-{[(1S)-1-cyclohexyl-2-(methylamino)-2-oxoethyl]carbamoyl}furan-2-yl)benzyl]-4-ethylpyridine-2-carboxamide] |
| 110 | CNC(=O)[C@@H](NC(=O)c1ccc(-c2cccc(CNC(=O)c3cn4c(C)cccc4n3)c2)o1)C1CCCCC1 [N-[3-(5-{[(1S)-1-cyclohexyl-2-(methylamino)-2-oxoethyl]carbamoyl}furan-2-yl)benzyl]-5-methylimidazo[1,2-a]pyridine-2-carboxamide] |
| 30 | CNC(=O)[C@@H](NC(=O)c1ccc(-c2cccc(CNC(=O)c3cncc(C)c3)c2)o1)C1CCCCC1 [N-[3-(5-{[(1S)-1-cyclohexyl-2-(methylamino)-2-oxoethyl]carbamoyl}furan-2-yl)benzyl]-5-methylpyridine-3-carboxamide] |
| 137 | CNC(=O)[C@@H](NC(=O)c1ccc(-c2cccc(CNC(=O)c3cn4ccc(C)cc4n3)c2)o1)C1CCCCC1 [N-[3-(5-{[(1S)-1-cyclohexyl-2-(methylamino)-2-oxoethyl]carbamoyl}furan-2-yl)benzyl]-7-methylimidazo[1,2-a]pyridine-2-carboxamide] |
| 9 | CNC(=O)[C@@H](NC(=O)c1ccc(-c2cccc(CNC(=O)c3ccccn3)c2)o1)C1CCCCC1 [N-[3-(5-{[(1S)-1-cyclohexyl-2-(methylamino)-2-oxoethyl]carbamoyl}furan-2-yl)benzyl]pyridine-2-carboxamide] |
